Test results published in ChEMBL document CHEMBL1909046, “DrugMatrix in vitro pharmacology data”.

molecular target: T1, Alpha-2A adrenergic receptor (Homo sapiens, UniProt P08913); assay: not given; type: cell membranes, Sf9, Membrane; settings: sf9; further: in other assays of this panel Not Active means under 50% inhibition at 10 µM
T1 sequence (P08913 whole entry): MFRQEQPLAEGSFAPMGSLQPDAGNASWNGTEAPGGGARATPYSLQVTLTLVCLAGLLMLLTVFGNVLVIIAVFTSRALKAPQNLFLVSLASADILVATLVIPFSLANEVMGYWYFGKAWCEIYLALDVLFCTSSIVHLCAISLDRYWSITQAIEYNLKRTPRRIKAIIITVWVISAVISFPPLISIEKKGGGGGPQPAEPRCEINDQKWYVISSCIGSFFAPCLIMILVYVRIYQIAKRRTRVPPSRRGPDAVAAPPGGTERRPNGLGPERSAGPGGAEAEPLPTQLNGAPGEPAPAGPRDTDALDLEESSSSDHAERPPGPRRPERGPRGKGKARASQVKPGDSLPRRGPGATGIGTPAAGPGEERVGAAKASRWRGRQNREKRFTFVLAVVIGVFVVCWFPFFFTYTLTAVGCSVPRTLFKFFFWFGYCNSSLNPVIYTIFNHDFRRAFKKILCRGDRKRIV

Compound	IC50
CC(=O)Nc1cccc(O)c1 [METACETAMOL]	Not Active
Cc1ncc([N+](=O)[O-])n1CCO [METRONIDAZOLE]	Not Active
CC(C)(C(=O)c1cccnc1)c1cccnc1 [METYRAPONE]	Not Active
Oc1ccc(OCc2ccccc2)cc1 [MONOBENZONE]	Not Active
CC(C)(Oc1ccc(C2CCCc3ccccc32)cc1)C(=O)O (stereo not given) [NAFENOPIN]	Not Active
CC(C)[C@H]1CC[C@H](C(=O)N[C@H](Cc2ccccc2)C(=O)O)CC1 [NATEGLINIDE]	Not Active
COc1ccc2[nH]c([S+]([O-])Cc3ncc(C)c(OC)c3C)nc2c1 (stereo not given) [OMEPRAZOLE]	Not Active
Cc1nccn1CC1CCc2c(c3ccccc3n2C)C1=O (stereo not given) [ONDANSETRON]	Not Active
O=C(C1CCCCC1)N1CC(=O)N2CCc3ccccc3C2C1 (stereo not given) [PRAZIQUANTEL]	Not Active
CCN(CC)CCOC(=O)c1ccc(N)cc1 [PROCAINE]	Not Active

molecular target: T2, Calcitonin receptor (Homo sapiens, UniProt P30988); assay: not given; type: cell membranes, Membrane; settings: t47d; further: in other assays of this panel Not Active means under 50% inhibition at 10 µM
T2 sequence (P30988 whole entry): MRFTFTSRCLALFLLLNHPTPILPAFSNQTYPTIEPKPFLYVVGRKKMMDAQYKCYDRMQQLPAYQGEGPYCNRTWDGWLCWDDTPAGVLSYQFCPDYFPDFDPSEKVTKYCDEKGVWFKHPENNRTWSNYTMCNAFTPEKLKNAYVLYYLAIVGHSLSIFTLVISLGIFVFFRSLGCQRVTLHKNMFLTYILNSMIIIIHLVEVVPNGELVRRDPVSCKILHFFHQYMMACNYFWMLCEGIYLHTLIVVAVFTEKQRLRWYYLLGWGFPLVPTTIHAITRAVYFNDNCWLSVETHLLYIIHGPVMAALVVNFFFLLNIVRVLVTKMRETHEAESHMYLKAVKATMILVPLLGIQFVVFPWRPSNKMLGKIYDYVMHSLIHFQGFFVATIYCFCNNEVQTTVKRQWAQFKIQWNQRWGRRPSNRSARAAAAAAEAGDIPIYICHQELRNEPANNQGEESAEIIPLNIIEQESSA

Compound	IC50
CC(=O)Nc1cccc(O)c1 [METACETAMOL]	Not Active
Cc1ncc([N+](=O)[O-])n1CCO [METRONIDAZOLE]	Not Active
CC(C)(C(=O)c1cccnc1)c1cccnc1 [METYRAPONE]	Not Active
Oc1ccc(OCc2ccccc2)cc1 [MONOBENZONE]	Not Active
CC(C)(Oc1ccc(C2CCCc3ccccc32)cc1)C(=O)O (stereo not given) [NAFENOPIN]	Not Active
CC(C)[C@H]1CC[C@H](C(=O)N[C@H](Cc2ccccc2)C(=O)O)CC1 [NATEGLINIDE]	Not Active
COc1ccc2[nH]c([S+]([O-])Cc3ncc(C)c(OC)c3C)nc2c1 (stereo not given) [OMEPRAZOLE]	Not Active
Cc1nccn1CC1CCc2c(c3ccccc3n2C)C1=O (stereo not given) [ONDANSETRON]	Not Active
O=C(C1CCCCC1)N1CC(=O)N2CCc3ccccc3C2C1 (stereo not given) [PRAZIQUANTEL]	Not Active
CCN(CC)CCOC(=O)c1ccc(N)cc1 [PROCAINE]	Not Active

molecular target: T3, 5-hydroxytryptamine receptor 2C (Homo sapiens, UniProt P28335); assay: DRUGMATRIX: Serotonin (5-Hydroxytryptamine) 5-HT2C radioligand binding (ligand: [3H] Mesulergine); type: cell membranes, CHO-K1, Membrane; settings: cho-k1; Not Active = under 50% inhibition at 10 µM
T3 sequence (P28335 whole entry): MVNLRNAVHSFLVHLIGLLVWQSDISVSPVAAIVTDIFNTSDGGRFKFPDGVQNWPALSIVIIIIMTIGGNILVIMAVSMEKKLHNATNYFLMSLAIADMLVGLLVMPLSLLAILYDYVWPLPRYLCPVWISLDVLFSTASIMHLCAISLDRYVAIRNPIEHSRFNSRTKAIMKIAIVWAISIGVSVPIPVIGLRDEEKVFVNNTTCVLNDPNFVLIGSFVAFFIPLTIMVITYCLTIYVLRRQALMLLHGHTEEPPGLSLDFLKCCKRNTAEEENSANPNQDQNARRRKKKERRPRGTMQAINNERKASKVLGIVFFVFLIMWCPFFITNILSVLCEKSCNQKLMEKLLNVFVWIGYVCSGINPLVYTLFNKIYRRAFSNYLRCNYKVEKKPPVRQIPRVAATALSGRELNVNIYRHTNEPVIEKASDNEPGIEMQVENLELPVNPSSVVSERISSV

Compound	IC50
CC(=O)Nc1cccc(O)c1 [METACETAMOL]	Not Active
Cc1ncc([N+](=O)[O-])n1CCO [METRONIDAZOLE]	Not Active
CC(C)(C(=O)c1cccnc1)c1cccnc1 [METYRAPONE]	Not Active
Oc1ccc(OCc2ccccc2)cc1 [MONOBENZONE]	Not Active
CC(C)(Oc1ccc(C2CCCc3ccccc32)cc1)C(=O)O (stereo not given) [NAFENOPIN]	Not Active
CC(C)[C@H]1CC[C@H](C(=O)N[C@H](Cc2ccccc2)C(=O)O)CC1 [NATEGLINIDE]	Not Active
COc1ccc2[nH]c([S+]([O-])Cc3ncc(C)c(OC)c3C)nc2c1 (stereo not given) [OMEPRAZOLE]	Not Active
Cc1nccn1CC1CCc2c(c3ccccc3n2C)C1=O (stereo not given) [ONDANSETRON]	Not Active
O=C(C1CCCCC1)N1CC(=O)N2CCc3ccccc3C2C1 (stereo not given) [PRAZIQUANTEL]	Not Active
CCN(CC)CCOC(=O)c1ccc(N)cc1 [PROCAINE]	Not Active

molecular target: T4, Polyunsaturated fatty acid lipoxygenase ALOX15 (Oryctolagus cuniculus, UniProt P12530); assay: biochemical; type: tissue-based, Reticulocytes; settings: read-out: IC50;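 further: inhibition of 15-lipoxygenase enzyme activity measured with linoleic acid as the substrate; in other assays of this panel Not Active means under 50% inhibition at 10 µM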
T4 sequence (P12530 whole entry): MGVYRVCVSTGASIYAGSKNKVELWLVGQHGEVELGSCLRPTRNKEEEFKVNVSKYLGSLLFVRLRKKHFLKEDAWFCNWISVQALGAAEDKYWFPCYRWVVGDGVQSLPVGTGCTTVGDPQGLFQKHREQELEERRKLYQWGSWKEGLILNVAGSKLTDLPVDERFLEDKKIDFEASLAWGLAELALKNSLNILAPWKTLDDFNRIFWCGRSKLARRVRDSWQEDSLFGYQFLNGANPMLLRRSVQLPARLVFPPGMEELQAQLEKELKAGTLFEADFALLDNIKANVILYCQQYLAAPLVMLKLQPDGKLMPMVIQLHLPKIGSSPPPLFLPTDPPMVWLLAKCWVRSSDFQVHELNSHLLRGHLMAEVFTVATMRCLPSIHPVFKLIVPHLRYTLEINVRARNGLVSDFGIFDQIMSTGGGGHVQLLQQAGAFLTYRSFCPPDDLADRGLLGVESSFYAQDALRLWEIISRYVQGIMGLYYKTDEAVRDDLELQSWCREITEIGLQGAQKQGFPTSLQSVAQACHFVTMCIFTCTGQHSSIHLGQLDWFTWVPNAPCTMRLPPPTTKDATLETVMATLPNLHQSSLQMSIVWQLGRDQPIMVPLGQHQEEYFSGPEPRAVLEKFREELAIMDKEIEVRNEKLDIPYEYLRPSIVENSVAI

Compound	IC50
Oc1ccc(OCc2ccccc2)cc1 [MONOBENZONE]	4890 nM

same assay, conditions: reticulocytes

Compound	IC50
CC(=O)Nc1cccc(O)c1 [METACETAMOL]	Not Active
Cc1ncc([N+](=O)[O-])n1CCO [METRONIDAZOLE]	Not Active
CC(C)(C(=O)c1cccnc1)c1cccnc1 [METYRAPONE]	Not Active
CC(C)(Oc1ccc(C2CCCc3ccccc32)cc1)C(=O)O (stereo not given) [NAFENOPIN]	Not Active
CC(C)[C@H]1CC[C@H](C(=O)N[C@H](Cc2ccccc2)C(=O)O)CC1 [NATEGLINIDE]	Not Active
COc1ccc2[nH]c([S+]([O-])Cc3ncc(C)c(OC)c3C)nc2c1 (stereo not given) [OMEPRAZOLE]	Not Active
Cc1nccn1CC1CCc2c(c3ccccc3n2C)C1=O (stereo not given) [ONDANSETRON]	Not Active
O=C(C1CCCCC1)N1CC(=O)N2CCc3ccccc3C2C1 (stereo not given) [PRAZIQUANTEL]	Not Active
CCN(CC)CCOC(=O)c1ccc(N)cc1 [PROCAINE]	Not Active

molecular target: Mitogen-activated protein kinase 1 (Homo sapiens, UniProt P28482); assay: DRUGMATRIX: Protein Serine/Threonine Kinase, ERK2 enzyme inhibition (substrate: Myelin Basic Protein); design: species or system Escherichia coli; settings: Not Active = under 50% inhibition at 10 µM
Sequence (P28482 whole entry): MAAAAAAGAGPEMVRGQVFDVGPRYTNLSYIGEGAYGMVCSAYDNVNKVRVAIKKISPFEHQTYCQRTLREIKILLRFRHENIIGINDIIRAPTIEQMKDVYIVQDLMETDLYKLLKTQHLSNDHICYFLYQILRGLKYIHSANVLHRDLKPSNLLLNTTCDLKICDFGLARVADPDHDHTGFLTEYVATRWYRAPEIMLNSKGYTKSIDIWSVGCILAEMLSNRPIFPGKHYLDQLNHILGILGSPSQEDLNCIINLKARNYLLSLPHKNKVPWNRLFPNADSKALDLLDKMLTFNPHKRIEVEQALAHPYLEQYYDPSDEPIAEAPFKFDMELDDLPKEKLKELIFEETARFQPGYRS

Compound	IC50
CC(=O)Nc1cccc(O)c1 [METACETAMOL]	Not Active
Cc1ncc([N+](=O)[O-])n1CCO [METRONIDAZOLE]	Not Active
CC(C)(C(=O)c1cccnc1)c1cccnc1 [METYRAPONE]	Not Active
Oc1ccc(OCc2ccccc2)cc1 [MONOBENZONE]	Not Active
CC(C)[C@H]1CC[C@H](C(=O)N[C@H](Cc2ccccc2)C(=O)O)CC1 [NATEGLINIDE]	Not Active
COc1ccc2[nH]c([S+]([O-])Cc3ncc(C)c(OC)c3C)nc2c1 (stereo not given) [OMEPRAZOLE]	Not Active
Cc1nccn1CC1CCc2c(c3ccccc3n2C)C1=O (stereo not given) [ONDANSETRON]	Not Active
O=C(C1CCCCC1)N1CC(=O)N2CCc3ccccc3C2C1 (stereo not given) [PRAZIQUANTEL]	Not Active
CCN(CC)CCOC(=O)c1ccc(N)cc1 [PROCAINE]	Not Active

same assay, conditions: Not Active = under 50% inhibition at 10 µM; read-out: IC50

Compound	IC50
CC(C)(Oc1ccc(C2CCCc3ccccc32)cc1)C(=O)O (stereo not given) [NAFENOPIN]	815 nM

molecular target: Cytochrome P450 2C19 (Homo sapiens, UniProt P33261); assay: not given; settings: bti-tn-5b1-4; further: in other assays of this panel Not Active means under 50% inhibition at 10 µM
Sequence (P33261 whole entry): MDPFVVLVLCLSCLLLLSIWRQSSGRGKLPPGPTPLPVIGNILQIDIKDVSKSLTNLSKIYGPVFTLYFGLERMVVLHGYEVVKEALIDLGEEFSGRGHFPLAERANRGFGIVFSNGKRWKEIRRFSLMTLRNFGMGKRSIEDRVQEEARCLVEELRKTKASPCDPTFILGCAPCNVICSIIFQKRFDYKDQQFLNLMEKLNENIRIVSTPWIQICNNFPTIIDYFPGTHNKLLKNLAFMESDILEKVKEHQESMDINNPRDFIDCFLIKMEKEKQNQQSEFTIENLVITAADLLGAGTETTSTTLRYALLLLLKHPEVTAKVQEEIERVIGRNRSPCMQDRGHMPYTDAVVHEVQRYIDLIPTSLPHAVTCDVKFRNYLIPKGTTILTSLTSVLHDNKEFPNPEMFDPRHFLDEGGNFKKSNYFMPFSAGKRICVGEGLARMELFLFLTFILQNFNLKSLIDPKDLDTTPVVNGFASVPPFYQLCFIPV

Compound	IC50	Ki
CC(=O)Nc1cccc(O)c1 [METACETAMOL]	Not Active	Not Active
Cc1ncc([N+](=O)[O-])n1CCO [METRONIDAZOLE]	Not Active	Not Active
CC(C)(C(=O)c1cccnc1)c1cccnc1 [METYRAPONE]	Not Active	Not Active
Oc1ccc(OCc2ccccc2)cc1 [MONOBENZONE]	Not Active	Not Active
CC(C)(Oc1ccc(C2CCCc3ccccc32)cc1)C(=O)O (stereo not given) [NAFENOPIN]	Not Active	Not Active
CC(C)[C@H]1CC[C@H](C(=O)N[C@H](Cc2ccccc2)C(=O)O)CC1 [NATEGLINIDE]	Not Active	Not Active
COc1ccc2[nH]c([S+]([O-])Cc3ncc(C)c(OC)c3C)nc2c1 (stereo not given) [OMEPRAZOLE]	Not Active	Not Active
Cc1nccn1CC1CCc2c(c3ccccc3n2C)C1=O (stereo not given) [ONDANSETRON]	Not Active	Not Active
O=C(C1CCCCC1)N1CC(=O)N2CCc3ccccc3C2C1 (stereo not given) [PRAZIQUANTEL]	Not Active	Not Active
CCN(CC)CCOC(=O)c1ccc(N)cc1 [PROCAINE]	Not Active	Not Active
